# Laboratory results from ChEMBL document CHEMBL4382223, “Design, synthesis and biological evaluation of anthranilamide derivatives as potential factor Xa (fXa) inhibitors” (Bioorg Med Chem, 2018).
# The source made the active and inactive calls. The calls are words filed in the database; no cut-off is given here.
# What was measured:
# Coagulation factor X = Coagulation factor X (Homo sapiens, UniProt P00742); assay: Inhibition of human factor Xa using S-2222 as substrate preincubated for 30 mins followed by substrate addition and measured for 20 mins
# Coagulation factor X, sequence (P00742 41-179 limits assumed): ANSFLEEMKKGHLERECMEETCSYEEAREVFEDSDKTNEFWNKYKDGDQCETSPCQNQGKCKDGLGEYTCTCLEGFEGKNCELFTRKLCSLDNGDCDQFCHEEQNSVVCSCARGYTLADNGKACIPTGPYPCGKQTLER
# Coagulation factor X, sequence (P00742 235-488 limits assumed): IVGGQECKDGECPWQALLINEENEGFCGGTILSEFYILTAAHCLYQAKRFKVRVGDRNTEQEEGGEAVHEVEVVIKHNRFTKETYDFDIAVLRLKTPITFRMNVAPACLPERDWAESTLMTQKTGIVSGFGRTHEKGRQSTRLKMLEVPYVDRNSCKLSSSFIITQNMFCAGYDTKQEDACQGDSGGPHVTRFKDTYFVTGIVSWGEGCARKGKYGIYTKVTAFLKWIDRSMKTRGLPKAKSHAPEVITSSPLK
# Plasma [1] = assay: Anticoagulant activity in citrated rabbit plasma assessed as concentration required to double prothrombin time after 10 mins by coagulometric analysis; type: functional, Oryctolagus cuniculus
# Plasma [2] = assay: Anticoagulant activity in citrated rabbit plasma assessed as concentration required to double activated partial thromboplastin time after 10 mins by coagulometric analysis; type: functional, Oryctolagus cuniculus
# Rattus norvegicus [3] = assay: Antithrombotic activity in rat model of arteriovenous shunt thrombosis assessed as reduction thrombus weight at 1 mg/kg, po dosed 90 mins before shunt was opened for 15 mins relative to untreated control; type: functional; design: scale not given: the % may be the effect or the level left
# [4] = Cmax in Sprague-Dawley rat at 3 mg/kg, po by LC-MS analysis; type: ADME, organism-based; design: dose 3 mg/kg, route oral; conditions: in vivo
# [5] = Elimination half life in Sprague-Dawley rat at 1 mg/kg, iv by LC-MS analysis; type: ADME, organism-based; conditions: in vivo
# Prothrombin = Prothrombin (Homo sapiens, UniProt P00734); assay: Inhibition of human recombinant thrombin expressed in HEK293 cells using S-2238 as substrate preincubated for 30 mins followed by substrate addition and measured for 20 mins; type: single protein
# Rattus norvegicus [6] = assay: Antithrombotic activity in rat model of FeCl3-induced venous thrombosis assessed as reduction thrombus weight at 1 mg/kg, po dosed 60 mins before thrombus formation relative to untreated control; type: functional; design: scale not given: the % may be the effect or the level left
# Rattus norvegicus [7] = assay: Antithrombotic activity in rat model of FeCl3-induced venous thrombosis assessed as reduction thrombus weight at 5 mg/kg, po dosed 60 mins before thrombus formation relative to untreated control; type: functional; design: scale not given: the % may be the effect or the level left
# Rattus norvegicus [8] = assay: Antithrombotic activity in rat model of FeCl3-induced venous thrombosis assessed as reduction thrombus weight at 10 mg/kg, po dosed 60 mins before thrombus formation relative to untreated control; type: functional; design: scale not given: the % may be the effect or the level left
# Rattus norvegicus [9] = assay: Antithrombotic activity in rat model of arteriovenous shunt thrombosis assessed as reduction thrombus weight at 5 mg/kg, po dosed 90 mins before shunt was opened for 15 mins relative to untreated control; type: functional; design: scale not given: the % may be the effect or the level left
# Rattus norvegicus [10] = assay: Antithrombotic activity in rat model of arteriovenous shunt thrombosis assessed as reduction thrombus weight at 10 mg/kg, po dosed 90 mins before shunt was opened for 15 mins relative to untreated control; type: functional; design: scale not given: the % may be the effect or the level left
# [11] = Toxicity in rat assessed as prolongation of tail bleeding dosed orally 60 mins before tails of anesthetized rat were transected and measured over 30 mins; type: organism-based; conditions: in vivo, po, 0.5 h
# [12] = Toxicity in rat assessed as prolongation of tail bleeding at 1 to 10 mg/kg, po dosed 60 mins before tails of anesthetized rat were transected and measured over 30 mins; type: organism-based; conditions: in vivo, 0.5 h
# [13] = Tmax in Sprague-Dawley rat at 3 mg/kg, po by LC-MS analysis; type: ADME, organism-based; conditions: in vivo
# [14] = Elimination half life in Sprague-Dawley rat at 3 mg/kg, po by LC-MS analysis; type: ADME, organism-based; conditions: in vivo, read-out: beta t1/2 (converted)
# [15] = AUC (0 to infinity) in Sprague-Dawley rat at 3 mg/kg, po by LC-MS analysis; type: ADME, organism-based; design: dose 3 mg/kg, route oral, time infinity; conditions: in vivo
# [16] = AUC (0 to infinity) in Sprague-Dawley rat at 1 mg/kg, iv by LC-MS analysis; type: ADME, organism-based; design: dose 1 mg/kg, time infinity, route intravenous; conditions: in vivo
# [17] = Plasma clearance in Sprague-Dawley rat at 1 mg/kg, iv by LC-MS analysis; type: ADME, organism-based; conditions: in vivo
# [18] = Volume of distribution at steady state in Sprague-Dawley rat at 1 mg/kg, iv by LC-MS analysis; type: ADME, organism-based; conditions: in vivo
# [19] = Oral bioavailability in Sprague-Dawley rat at 3 mg/kg by LC-MS analysis; type: ADME, organism-based; conditions: in vivo
# H9c2 = assay: Cytoprotective activity against hypoxia/reoxygenation-induced toxicity in rat H9c2 cells assessed as increase in cell viability at 1 to 10 uM by MTT assay; type: functional, cell-based
# Coagulation factor IX = Coagulation factor IX (Homo sapiens, UniProt P00740); assay: Inhibition of human factor 9a preincubated for 30 mins followed by substrate addition and measured for 20 mins
# Coagulation factor IX, sequence (P00740 47-191 limits assumed): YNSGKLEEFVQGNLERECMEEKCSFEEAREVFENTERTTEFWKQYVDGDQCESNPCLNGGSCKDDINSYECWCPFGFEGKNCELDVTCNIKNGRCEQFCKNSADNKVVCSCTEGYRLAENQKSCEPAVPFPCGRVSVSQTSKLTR
# Coagulation factor IX, sequence (P00740 227-461 limits assumed): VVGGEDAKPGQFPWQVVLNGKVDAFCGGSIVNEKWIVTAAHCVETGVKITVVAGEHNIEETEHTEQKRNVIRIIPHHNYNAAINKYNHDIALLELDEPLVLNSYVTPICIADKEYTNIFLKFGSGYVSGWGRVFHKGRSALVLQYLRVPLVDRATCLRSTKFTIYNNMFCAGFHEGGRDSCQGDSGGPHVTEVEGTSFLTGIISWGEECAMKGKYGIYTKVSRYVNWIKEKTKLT
# Trypsin = Trypsin (Homo sapiens, UniProt P07477+P07478+P35030); assay: Inhibition of human trypsin preincubated for 30 mins followed by substrate addition and measured for 20 mins; type: protein assay
# Homo sapiens [20] = species: Homo sapiens; assay: Selectivity ratio of IC50 for human recombinant thrombin expressed in HEK293 cells to IC50 for human factor Xa; type: cell-based
# Coagulation factor VII = molecular target: T1, Coagulation factor VII (Homo sapiens, UniProt P08709); assay: Inhibition of human factor 7a preincubated for 30 mins followed by substrate addition and measured for 20 mins
# T1 sequence (P08709 whole entry): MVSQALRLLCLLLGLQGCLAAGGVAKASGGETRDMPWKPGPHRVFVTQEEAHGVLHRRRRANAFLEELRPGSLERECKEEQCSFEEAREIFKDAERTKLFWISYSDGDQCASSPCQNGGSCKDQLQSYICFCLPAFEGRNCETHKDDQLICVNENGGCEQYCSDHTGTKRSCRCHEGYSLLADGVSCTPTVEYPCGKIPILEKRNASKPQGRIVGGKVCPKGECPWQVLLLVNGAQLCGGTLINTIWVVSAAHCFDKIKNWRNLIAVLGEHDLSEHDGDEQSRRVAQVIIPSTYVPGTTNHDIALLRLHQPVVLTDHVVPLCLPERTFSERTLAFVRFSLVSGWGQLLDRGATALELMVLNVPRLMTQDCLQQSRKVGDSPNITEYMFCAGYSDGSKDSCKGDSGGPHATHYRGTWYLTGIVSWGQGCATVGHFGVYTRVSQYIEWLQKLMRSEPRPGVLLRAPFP
# Homo sapiens [21] = species: Homo sapiens; assay: Selectivity ratio of IC50 for human factor 7a to IC50 for human factor Xa
# Homo sapiens [22] = species: Homo sapiens; assay: Selectivity ratio of IC50 for human factor 9a to IC50 for human factor Xa
# Homo sapiens [23] = species: Homo sapiens; assay: Selectivity ratio of IC50 for human trypsin to IC50 for human factor Xa
# Rattus norvegicus [24] = assay: Antithrombotic activity in rat model of FeCl3-induced venous thrombosis dosed orally 60 mins before thrombus formation; type: functional, organism-based
# Rattus norvegicus [25] = assay: Antithrombotic activity in rat model of arteriovenous shunt thrombosis dosed orally 90 mins before shunt was opened for 15 mins; type: functional, organism-based
smiles,measurement,setting,value
COc1ccc(NC(=O)c2cc(OC)ccc2NC(=O)c2nc3c(s2)CN(C)CC3)cc1,IC50,Coagulation factor X,234 nM
COc1ccc(NC(=O)c2nc3c(s2)CN(C)CC3)c(C(=O)Nc2ccc(F)cn2)c1,IC50,Coagulation factor X,24 nM
COc1ccc(NC(=O)c2ccc(N3CCCCC3=O)cc2)c(C(=O)Nc2ccc(F)cc2)c1,IC50,Coagulation factor X,1080 nM
COc1ccc(NC(=O)c2ccc(N3CCCCC3=O)cc2)c(C(=O)Nc2cccc(F)c2)c1,IC50,Coagulation factor X,45 nM
COc1ccc(NC(=O)c2ccc(N3CCCC3=O)cc2)c(C(=O)Nc2ccc(Cl)cc2)c1,IC50,Coagulation factor X,653 nM
C#Cc1ccc(NC(=O)c2cc(OC)ccc2NC(=O)c2nc3c(s2)CN(C)CC3)cc1,IC50,Coagulation factor X,20 nM
COc1ccc(NC(=O)c2ccc(-n3ccccc3=O)cc2)c(C(=O)Nc2ccc(Cl)cc2)c1,IC50,Coagulation factor X,179 nM
COc1ccc(NC(=O)c2ccc(N3CCOCC3=O)cc2)c(C(=O)Nc2ccccc2OC)c1,IC50,Coagulation factor X,1540 nM
COc1ccc(NC(=O)c2nc3c(s2)CN(C)CC3)c(C(=O)Nc2ccc(C)cc2)c1,IC50,Coagulation factor X,30 nM
COc1ccc(NC(=O)c2ccc(C(=N)N(C)C)cc2)c(C(=O)Nc2ccc(Cl)cn2)c1 [BETRIXABAN],2PT,Plasma [1],2.4 µM
same,2aPTT,Plasma [2],1.1 µM
same,Activity,Rattus norvegicus [3],24%
same,Cmax,[4],146 ng/mL
same,beta t1/2,[5],7.8 h
same,IC50,Prothrombin,18000 nM
same,Activity,Rattus norvegicus [6],27%
same,Activity,Rattus norvegicus [7],38%
same,Activity,Rattus norvegicus [8],59%
same,Activity,Rattus norvegicus [9],43%
same,Activity,Rattus norvegicus [10],61%
same,Activity,[11],Dose-dependent effect
same,Activity,[12],Toxic
same,Tmax,[13],2.6 h
same,half-life,[14],8.6 h
same,AUC,[15],571 ng·h/mL
same,AUC,[16],1832 ng·h/mL
same,CL,[17],22.7 mL/min/kg
same,Vdss,[18],0.191 L/kg
same,F,[19],30.2%
same,Activity,H9c2,inactive
COc1ccc(NC(=O)c2nc3c(s2)CN(C)CC3)c(C(=O)Nc2ccc(Cl)cn2)c1,2PT,Plasma [1],0.8 µM
same,IC50,Coagulation factor IX,36000 nM
same,IC50,Trypsin,9100 nM
same,Ratio IC50,Homo sapiens [20],> 1000
same,2aPTT,Plasma [2],0.5 µM
same,Activity,Rattus norvegicus [3],30%
same,Cmax,[4],221 ng/mL
same,beta t1/2,[5],8.8 h
same,IC50,Coagulation factor X,3.5 nM
same,IC50,Prothrombin,4200 nM
same,IC50,Coagulation factor VII,12000 nM
same,Ratio IC50,Homo sapiens [21],> 1000
same,Ratio IC50,Homo sapiens [22],> 1000
same,Ratio IC50,Homo sapiens [23],> 1000
same,Activity,Rattus norvegicus [24],Dose-dependent effect
same,Activity,Rattus norvegicus [25],Dose-dependent effect
same,Activity,Rattus norvegicus [6],23%
same,Activity,Rattus norvegicus [7],36%
same,Activity,Rattus norvegicus [8],54%
same,Activity,Rattus norvegicus [9],50%
same,Activity,Rattus norvegicus [10],67%
same,Activity,[11],Dose-dependent effect
same,Activity,[12],Toxic
same,Tmax,[13],3.2 h
same,half-life,[14],9.6 h
same,AUC,[15],1160 ng·h/mL
same,AUC,[16],2258 ng·h/mL
same,CL,[17],15.3 mL/min/kg
same,Vdss,[18],0.201 L/kg
same,F,[19],51.3%
same,Activity,H9c2,Active
COc1ccc(NC(=O)c2ccc(N3CCOCC3=O)cc2)c(C(=O)Nc2ccc(Cl)cc2)c1,IC50,Coagulation factor X,18 nM
COc1ccc(NC(=O)c2nc3c(s2)CN(C)CC3)c(C(=O)Nc2ccc(C)cn2)c1,2PT,Plasma [1],5.6 µM
same,IC50,Coagulation factor IX,42000 nM
same,IC50,Trypsin,54000 nM
same,Ratio IC50,Homo sapiens [20],> 1000
same,2aPTT,Plasma [2],2.2 µM
same,IC50,Coagulation factor X,10 nM
same,IC50,Prothrombin,32000 nM
same,IC50,Coagulation factor VII,11000 nM
same,Ratio IC50,Homo sapiens [21],> 1000
same,Ratio IC50,Homo sapiens [22],> 1000
same,Ratio IC50,Homo sapiens [23],> 1000
COc1ccc(NC(=O)c2ccc(N3CCCCC3=O)cc2)c(C(=O)Nc2ccc(C(C)(C)C)cc2)c1,IC50,Coagulation factor X,272 nM
COc1ccc(NC(=O)c2nc3c(s2)CN(C)CC3)c(C(=O)Nc2ccc(Cl)cc2)c1,2PT,Plasma [1],1.3 µM
same,IC50,Coagulation factor IX,26000 nM
same,IC50,Trypsin,18000 nM
same,Ratio IC50,Homo sapiens [20],> 1000
same,2aPTT,Plasma [2],0.8 µM
same,IC50,Coagulation factor X,4.8 nM
same,IC50,Prothrombin,7100 nM
same,IC50,Coagulation factor VII,4700 nM
same,Ratio IC50,Homo sapiens [21],> 1000
same,Ratio IC50,Homo sapiens [22],> 1000
same,Ratio IC50,Homo sapiens [23],> 1000
COc1ccc(NC(=O)c2nc3c(s2)CN(C)CC3)c(C(=O)Nc2ccc(Cl)s2)c1,IC50,Coagulation factor X,1390 nM
COc1ccc(NC(=O)c2ccc(N3CCCCC3=O)cc2)c(C(=O)Nc2ccc(Cl)cc2)c1,IC50,Coagulation factor X,246 nM
COc1ccc(NC(=O)c2ccc(N3CCCCC3=O)cc2)c(C(=O)Nc2ccccc2OC)c1,IC50,Coagulation factor X,3190 nM
COc1ccc(NC(=O)c2ccc(N3CCOCC3=O)cc2)c(C(=O)Nc2ccc(C(C)(C)C)cc2)c1,IC50,Coagulation factor X,2090 nM
COc1ccc(NC(=O)c2nc3c(s2)CN(C)CC3)c(C(=O)Nc2cccc(Cl)c2)c1,IC50,Coagulation factor X,315 nM
O=C(NC[C@H]1CN(c2ccc(N3CCOCC3=O)cc2)C(=O)O1)c1ccc(Cl)s1,Activity,H9c2,Active
COc1ccc(NC(=O)c2cc(OC)ccc2NC(=O)c2ccc(N3CCCCC3=O)cc2)cc1,IC50,Coagulation factor X,513 nM
COc1ccc(NC(=O)c2cc(OC)ccc2NC(=O)c2ccc(N3CCOCC3=O)cc2)cc1,IC50,Coagulation factor X,77 nM
COc1cccc(NC(=O)c2cc(OC)ccc2NC(=O)c2nc3c(s2)CN(C)CC3)c1,IC50,Coagulation factor X,981 nM
